In patent US11504428B2, “Photosensitizer and derivatives and application thereof” (DALIAN UNIVERSITY OF TECHNOLOGY, priority 2017, dated 2022):

Tests used:
HepG2 cells = assay: In vitro cell selectivity test, confocal fluorescence uptake in co-cultured cells, HepG2; format: cell-based; conditions: 1 μM, 1 h
Procedure: (§1) Firstly, HepG2 cells and COS-7 cells are cultured together in a cell culture dish for 24 h, and then 1 μM of 1-1-biotin or 1-1 is added and further incubation for 1 h. After staining, the cells are washed using serum-free medium for three times. Then, 2 mL fresh medium is added, and corresponding fluorescence observation is performed using the laser confocal scanning microscope. The excitation wavelength is 635 nm and the fluorescence receiving channel is 655 nm-755 nm.

[1] = tested on: COS-7 (African green monkey kidney cells); assay: In vitro anticancer test (MTT cell viability), dark and 660 nm light, COS-7; format: cell-based
HepG2 (hepatoma cells) = assay: In vitro anticancer test (MTT cell viability), dark and 660 nm light, HepG2; format: cell-based
Procedure: MCF-7 (human breast) cancer cells or HepG2 (liver cancer cell) are incubated on the cell culture plate in DMEM medium supplemented with 10% FBS and 1% penicillin-streptomycin at 37° C. in a humidified, 5% CO2 atmosphere. Then, the MCF-7 cells are seeded in 96 well cell culture plate at density of 5,000 cells per well. After 24 h incubation, 100 μL of 1-1-Biotin at different concentrations (5, 2.5, 1.25, 0.625, 0.32, 0.16, 0.08, 0.04, 0.02 μM) are added into the each well, and cultured for 1 h. Then, the cell medium is replaced with 200 μL fresh medium. For the phototoxicity test, the 96-well plate is irradiated with 660 nm light source for 10 min and then cultured in the above environment for 12 hours. No light irradiation is used as control. Then 20 μL MTT solution with a concentration of 5 mg/mL is added into each well and incubated in the incubator for another 4 hours. The culture medium is then removed and 200 μL DMSO is added to each well, and the plate is gently shaken for 5 min at room temperature. Finally, the absorbance at 490 nm is measured with a Bio-Rad microplate reader and the cell viability is calculated by the following equation: Cell Viability (%)=[Σ(Ai/Ācontrol×100)]/n
Ai is the absorbance of the ith group of data (I=1, 2 . . . , n), Ācontrol is the average absorbance of the control hole of the drug, and the parallel experiment is more than 3 times.

[2] = UV absorption and fluorescence emission spectra in methanol; format: physicochemical; conditions: 5 μM in methanol
Procedure: (§2) Compounds 1-1 and 1-2 synthesized from embodiment 1 above are added to 3 mL methanol solvent with a final concentration of 5 μM and their UV absorption spectra and fluorescence emission spectra are measured. […] The instruments used are AgIIlent 8453 UV spectrophotometer and AgIIlent Cary EclIIpse fluorescence spectrophotometer.
as §2, with “Benzophenoselenazine photosensitizer 2-1, 2-2,” for “Compounds 1-1 and 1-2”, “2” for “1”, “μM,” for “μM”
Compounds 1-1-IMC and 2-1-IMC synthesized from embodiment 3 above are added to 3 mL methanol solvent with a final concentration of 5 μM. The UV absorption spectra and fluorescence emission spectra are then measured. […] The instruments used are AgIIlent 8453 UV spectrophotometer and AgIIlent Cary EclIIpse fluorescence spectrophotometer.
Compounds 1-1-Biotin synthesized from embodiment 4 above is added to 3 mL methanol solvent with a final concentration of 5 μM, and then the UV absorption spectra and fluorescence emission spectra are detected. […] The instruments used are AgIIlent 8453 UV spectrophotometer and AgIIlent Cary EclIIpse fluorescence spectrophotometer.

[3] = Singlet oxygen production, DPBF absorption attenuation under 660 nm light, methylene blue as reference; format: physicochemical; conditions: 5 μM in methanol
Procedure: Compounds 1-1 and 1-2 synthesized in the embodiment 1 are added to 3 mL methanol solvent with a final concentration of 5 μM. Next, 1, 3-diphenyl isobenzofuran (DPBF) is added, and adjusting the absorbance of DPBF in the solution to about 1.0. Then the ultraviolet absorption curve is measured. According to the changes of the absorbance value of DPBF at 411 nm after each irradiation (660 nm light source), the correlation curve between absorbance and time is drawn. With methylene blue (MB) as reference, the singlet oxygen yield is calculated using the following formula.
(§3) Compounds 1-1 and 1-2 synthesized in the above embodiment 2 are added to 3 mL methanol solvent with a final concentration of 5 μM. Then, the 1,3-diphenyl isobenzofuran (DPBF) is added, and the absorbance of DPBF in the solution is adjusted to about 1.0. Then the ultraviolet absorption curve is measured after each 660 nm red light irradiation. According to the changes of the absorbance value of DPBF at 411 nm, the correlation curve between absorbance and time is drawn. With methylene blue (MB) as reference, the following formula is used to calculate the oxygen yield of its singlet state.
[formula] […] The instruments used are AgIIlent 8453 UV spectrophotometer, and the light source is 300 W xenon lamp.
as §3, with “1-1-IMC” for “1-1”, “2-1-IMC” for “1-2”
as §3, with “1-1-Biotin” for “1-1 and 1-2”

COS-7 cells = assay: In vitro cell selectivity test, confocal fluorescence uptake in co-cultured cells, COS-7; format: cell-based, African green monkey; conditions: 1 μM, 1 h, COS-7 co-cultured with HepG2, excitation 635 nm
Procedure: as §1

SMILES	cell uptake / targeting (red fluorescence) (HepG2 cells; HepG2 co-cultured with COS-7, excitation 635 nm)	phototoxicity (cytotoxicity) ([1]; COS-7, 10 minutes irradiation with 660 nm LED light source)	dark toxicity (cell survival rate) ([1]; COS-7, no light irradiation)	killing effect on biotin receptor overexpressing HepG2 cells relative to COS-7 cells (HepG2 (hepatoma cells); 660 nm light, HepG2 vs COS-7 with low biotin receptor expression)	phototoxicity (cell killing) (HepG2 (hepatoma cells); HepG2, 10 minutes irradiation with 660 nm LED light source, MTT)	dark toxicity (cell survival rate) (HepG2 (hepatoma cells); HepG2, no light irradiation, MTT)	maximum absorption wavelength [2]	maximum emission wavelength [2]	singlet oxygen yield [3]	cell uptake (red fluorescence) (COS-7 cells)	selectivity of uptake for HepG2 over COS-7 cells (HepG2 cells; co-culture of HepG2 and COS-7)
CCN(CC)c1ccc2nc3c4ccccc4/c(=N\CCCCCCNC(=O)CCCCC4SC[C@@H]5NC(=O)N[C@H]45)cc-3sc2c1 (some centres unmarked) [1-1-Biotin]	can specifically target HepG2 cells	only limited cytotoxicity	low dark toxicity	significantly higher	significant HepG2 cells arr killed	low dark toxicity	652 nm	681 nm	0.04	very limited	–
CCN(CC)c1ccc2nc3c4ccccc4/c(=N\CCCCCCNC(=O)Cc4c(C)n(C(=O)c5ccc(Cl)cc5)c5ccc(OC)cc45)cc-3sc2c1 [1-1-IMC]	–	–	–	–	–	–	654 nm	694 nm	0.04	–	–
CCN(CC)c1ccc2nc3c4ccccc4/c(=N\CCCCCCN)cc-3sc2c1 [1-1]	–	–	–	–	–	–	655 nm	694 nm	0.04	–	does not have such selectivity
CCN(CC)c1ccc2nc3c4ccccc4/c(=N\CCCCCC(=O)O)cc-3sc2c1 [1-2]	–	–	–	–	–	–	655 nm	694 nm	0.04	–	–
CCN(CC)c1ccc2nc3c4ccccc4/c(=N\CCCCCCNC(=O)Cc4c(C)n(C(=O)c5ccc(Cl)cc5)c5ccc(OC)cc45)cc-3[se]c2c1 [2-1-IMC]	–	–	–	–	–	–	662 nm	703 nm	0.82	–	–
CCN(CC)c1ccc2nc3c4ccccc4/c(=N\CCCCCCN)cc-3[se]c2c1 [2-1]	–	–	–	–	–	–	661 nm	702 nm	0.78	–	–
CCN(CC)c1ccc2nc3c4ccccc4/c(=N\CCCCCC(=O)O)cc-3[se]c2c1 [2-2]	–	–	–	–	–	–	661 nm	702 nm	0.73	–	–
